Laboratory results taken from PubChem BioAssay (NCI).
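How tested: cells in 96-well plates exposed to compound for 48 hours at five concentrations. GI50: concentration for 50% inhibition of growth. TGI: concentration producing complete growth inhibition.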

Assays:
Experiment in all cases: NCI anticancer screen, dose series, 48 h
[1] = system: M14 melanoma
[2] = system: HOP-62 NSCLC
[3] = system: PC-3 prostate
[4] = system: SN12C renal
[5] = system: NCI-H23 lung
[6] = system: U251 CNS
[7] = system: NCI-H460 lung
[8] = system: MALME-3M melanoma
[9] = system: 786-0 renal
[10] = system: COLO 205 colon
[11] = system: UACC-62 melanoma
[12] = system: OVCAR-5 ovarian
[13] = system: TK-10 renal
[14] = system: SF-295 CNS
[15] = system: NCI/ADR-RES ovarian
[16] = system: DU-145 prostate
[17] = system: UO-31 renal
[18] = system: BT-549 breast
[19] = system: SNB-19 CNS
[20] = system: K-562 leukemia
[21] = system: UACC-257 melanoma
[22] = system: MDA-MB-231 breast
[23] = system: SF-539 CNS
[24] = system: SK-OV-3 ovarian
[25] = system: HCT-116 colon
[26] = system: HOP-92 NSCLC
[27] = system: SF-268 CNS
[28] = system: MOLT-4 leukemia
[29] = system: CCRF-CEM leukemia
[30] = system: HT29 colon
[31] = system: RXF 393 renal
[32] = system: SK-MEL-28 melanoma
[33] = system: HCC-2998 colon
[34] = system: HL-60(TB) leukemia
[35] = system: A549 NSCLC
[36] = system: MDA-MB-435
[37] = system: NCI-H226 lung
[38] = system: LOX IMVI melanoma
[39] = system: ACHN renal
[40] = system: HCT-15 colon
[41] = system: KM12 colon
[42] = system: OVCAR-3 ovarian
[43] = system: SK-MEL-5 melanoma
[44] = system: HS 578T breast
[45] = system: CAKI-1 renal
[46] = system: SW-620 colon
[47] = system: OVCAR-8 ovarian
[48] = system: NCI-H522 lung
[49] = system: MCF7 breast
[50] = system: RPMI-8226 leukemia
[51] = system: OVCAR-4 ovarian
[52] = system: SK-MEL-2 melanoma
[53] = system: EKVX NSCLC
[54] = system: A498 renal

`O=C1c2cc3c(cc2-c2c1c1ccc(F)cc1c(=O)n2CCCNCCO)OCO3` gave a GI50 [1] of 36.7 nM, a TGI [1] of 1090 nM and a GI50 [2] of 36.6 nM. The TGI [2] was 496 nM, the GI50 [3] was 144 nM and the TGI [3] was 1470 nM. It also gave a GI50 [4] of 108 nM, a TGI [4] of 861 nM and a GI50 [5] of 30.4 nM. It also gave a TGI [5] of 147 nM, a GI50 [6] of 22.5 nM and a TGI [6] of 102 nM. The GI50 [7] was 21.9 nM, the TGI [7] was 204 nM and the GI50 [8] was 102 nM. It also gave a TGI [8] of 729 nM, a GI50 [9] of 33.5 nM and a TGI [9] of 776 nM. It also gave a GI50 [10] of 42.3 nM, a TGI [10] of 810 nM and a GI50 [11] of 28.1 nM. For the same compound, the TGI [11] was 174 nM, the GI50 [12] was 242 nM and the TGI [12] was 1230 nM. For the same compound, the GI50 [13] was 148 nM, the TGI [13] was 487 nM and the GI50 [14] was 22.4 nM. It also gave a TGI [14] of 114 nM, a GI50 [15] of 37.4 nM and a TGI [15] of 1080 nM. For the same compound, the GI50 [16] was 32.9 nM, the TGI [16] was 1090 nM and the GI50 [17] was 29.2 nM. The TGI [17] was 148 nM, the GI50 [18] was 238 nM and the TGI [18] was 1340 nM. The GI50 [19] was 43.1 nM, the TGI [19] was 1160 nM and the GI50 [20] was 37.3 nM. The TGI [20] was 1360 nM, the GI50 [21] was 123 nM and the TGI [21] was 853 nM. For the same compound, the GI50 [22] was 255 nM, the TGI [22] was 1060 nM and the GI50 [23] was 40.7 nM. It also gave a TGI [23] of 324 nM, a GI50 [24] of 52.5 nM and a TGI [24] of 566 nM. For the same compound, the GI50 [25] was 19 nM, the TGI [25] was 196 nM and the GI50 [26] was 198 nM. For the same compound, the TGI [26] was 845 nM, the GI50 [27] was 53.7 nM and the TGI [27] was 1160 nM. The GI50 [28] was 24 nM, the TGI [28] was 1240 nM and the GI50 [29] was 30.1 nM. The TGI [29] was 1270 nM, the GI50 [30] was 27.9 nM and the TGI [30] was 152 nM. It also gave a GI50 [31] of 100 nM, a TGI [31] of 322 nM and a GI50 [32] of 329 nM. It also gave a TGI [32] of 1770 nM, a GI50 [33] of 53.7 nM and a TGI [33] of 272 nM. It also gave a GI50 [34] of 29.1 nM, a TGI [34] of 198 nM and a GI50 [35] of 33.9 nM. It also gave a TGI [35] of 188 nM, a GI50 [36] of 67.4 nM and a TGI [36] of 955 nM. For the same compound, the GI50 [37] was 41.1 nM, the TGI [37] was 192 nM and the GI50 [38] was 13.9 nM. The TGI [38] was 58.2 nM, the GI50 [39] was 24.7 nM and the TGI [39] was 104 nM. It also gave a GI50 [40] of 27.7 nM, a TGI [40] of 270 nM and a GI50 [41] of 64.6 nM. It also gave a TGI [41] of 1060 nM, a GI50 [42] of 75.1 nM and a TGI [42] of 826 nM. The GI50 [43] was 109 nM, the TGI [43] was 232 nM and the GI50 [44] was 381 nM. It also gave a TGI [44] of 2680 nM, a GI50 [45] of 62.8 nM and a TGI [45] of 1440 nM. For the same compound, the GI50 [46] was 21.8 nM, the TGI [46] was 1000 nM and the GI50 [47] was 53.8 nM. The TGI [47] was 356 nM, the GI50 [48] was 14 nM and the TGI [48] was 106 nM. For the same compound, the TGI [49] was 166 nM, the GI50 [50] was 57.7 nM and the TGI [50] was 571 nM. The GI50 [51] was 194 nM, the TGI [51] was 1330 nM and the GI50 [52] was 273 nM. The TGI [52] was 716 nM, the GI50 [53] was 211 nM and the TGI [53] was 1210 nM. For the same compound, the GI50 [54] was 137 nM and the TGI [54] was 491 nM.
